Measured values: ChEMBL document CHEMBL4364252, “Tetrahydropyrazolo[1,5-a]pyridine-fused steroids and their in vitro biological evaluation in prostate cancer” (2019)
Active and inactive are the calls of the source. The calls are words filed in the database; no cut-off is given here.

Columns and labels:
LNCaP [1] = test: Antiproliferative activity against AR-positive human LNCAP cells assessed as cell viability at 40 uM measured after 72 hrs by resazurin dye based fluorescence assay relative to control; type: functional; conditions: read-out: Activity
[2] = target: T1, Androgen receptor (Homo sapiens) (UniProt P10275); test: Inhibition of AR transcriptional activity in AR-positive human VCaP cells assessed as decrease in NKX3.1 protein expression at 20 uM upto 72 hrs by immunoblot analysis; type: cell-based
T1 sequence (whole entry): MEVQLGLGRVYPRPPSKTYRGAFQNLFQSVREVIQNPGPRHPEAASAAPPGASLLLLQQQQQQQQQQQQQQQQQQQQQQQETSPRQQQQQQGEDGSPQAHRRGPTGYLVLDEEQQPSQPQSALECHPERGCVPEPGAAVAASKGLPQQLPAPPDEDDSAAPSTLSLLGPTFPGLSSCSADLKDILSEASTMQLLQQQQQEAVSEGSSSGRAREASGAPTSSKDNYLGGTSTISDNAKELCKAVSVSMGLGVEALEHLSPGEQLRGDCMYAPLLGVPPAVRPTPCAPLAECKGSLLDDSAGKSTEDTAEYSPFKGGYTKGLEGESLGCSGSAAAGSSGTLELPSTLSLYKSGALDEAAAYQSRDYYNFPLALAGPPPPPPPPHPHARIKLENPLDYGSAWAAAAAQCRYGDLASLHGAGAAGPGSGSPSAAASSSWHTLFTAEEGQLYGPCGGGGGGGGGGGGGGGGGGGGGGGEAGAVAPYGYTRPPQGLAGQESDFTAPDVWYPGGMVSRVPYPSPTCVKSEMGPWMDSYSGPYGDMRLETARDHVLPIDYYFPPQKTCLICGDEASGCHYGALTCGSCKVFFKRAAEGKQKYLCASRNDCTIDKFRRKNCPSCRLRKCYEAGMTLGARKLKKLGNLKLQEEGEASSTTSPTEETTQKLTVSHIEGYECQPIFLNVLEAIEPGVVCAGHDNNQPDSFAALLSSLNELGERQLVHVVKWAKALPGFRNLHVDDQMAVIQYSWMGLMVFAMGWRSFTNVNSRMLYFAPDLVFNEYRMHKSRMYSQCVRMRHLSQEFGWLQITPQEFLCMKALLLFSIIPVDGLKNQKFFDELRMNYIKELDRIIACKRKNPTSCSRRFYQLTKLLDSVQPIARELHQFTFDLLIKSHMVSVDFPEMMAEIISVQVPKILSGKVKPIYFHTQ

CWR22R [3] = test: Antiproliferative activity against human AR-positive 22Rv1 cells harboring ARE14 construct assessed as growth inhibition measured after 72 hrs by resazurin dye based fluorescence assay; type: functional; conditions: 22Rv1, 72 h
CWR22R [4] = test: Inhibition of colony formation in AR-positive human 22Rv1 cells harboring ARE14 construct at 1.25 to 20 uM incubated for 10 days by crystal violet staining; type: functional, cell-based
CWR22R [5] = test: Antiproliferative activity against AR-positive human 22Rv1 cells harboring ARE14 construct assessed as cell viability at 40 uM measured after 72 hrs by resazurin dye based fluorescence assay relative to control; type: functional; conditions: 22Rv1, 72 h, read-out: Activity
LAPC4 [6] = test: Antiproliferative activity against AR-positive human LAPC4 cells assessed as cell viability at 40 uM measured after 72 hrs by resazurin dye based fluorescence assay relative to control; type: functional; conditions: LAPC4, 72 h, read-out: Activity
VCaP [7] = test: Induction of apoptosis in AR-positive human VCaP cells assessed as cleaved PARP level at 5 to 20 uM after 24 hrs by immunoblot analysis; type: functional, cell-based
[8] = target: T1, Androgen receptor (Homo sapiens); test: Inhibition of AR transcriptional activity in AR-positive human VCaP cells assessed as NKX3.1 protein expression at 5 to 20 uM after 24 hrs by immunoblot analysis; type: cell-based
LAPC4 [9] = test: Antiproliferative activity against AR-positive human LAPC4 cells assessed as growth inhibition measured after 72 hrs by resazurin dye based fluorescence assay; type: functional; conditions: LAPC4, 72 h
[10] = target: T1, Androgen receptor (Homo sapiens); conditions: at 10 µM
Description: Inhibition of AR transcriptional activity in AR-positive human 22Rv1 cells harboring ARE14 construct assessed as suppression of PSA expression at 10 uM after 24 hrs by immunoblot analysis

[11] = target: T1, Androgen receptor (Homo sapiens); test: Inhibition of R1881 induced-AR transcriptional activity in AR-positive human 22Rv1 cells harboring ARE14 construct after 24 hrs by luciferase assay
CWR22R [12] = test: Effect on AR-V7 variant protein expression in AR-positive human 22Rv1 cells harboring ARE14 construct at 10 uM after 24 hrs by immunoblot analysis; type: functional, cell-based
VCaP [13] = test: Antiproliferative activity against AR-positive human VCaP cells assessed as cell viability at 40 uM measured after 72 hrs by resazurin dye based fluorescence assay relative to control; type: functional; conditions: read-out: Activity
[14] = target: T1, Androgen receptor (Homo sapiens); conditions: at 10 µM; remark: listed apart in the source
Description: Inhibition of AR transcriptional activity in AR-positive human 22Rv1 cells harboring ARE14 construct assessed as suppression of NKX3.1 expression at 10 uM after 24 hrs by immunoblot analysis

[15] = target: T1, Androgen receptor (Homo sapiens); test: Inhibition of AR transcriptional activity in AR-positive human VCaP cells assessed as decrease in PSA protein expression at 20 uM after 48 hrs by immunoblot analysis; type: cell-based
LNCaP [16] = test: Antiproliferative activity against AR-positive human LNCAP cells assessed as growth inhibition measured after 72 hrs by resazurin dye based fluorescence assay; type: functional
CWR22R [17] = test: Induction of apoptosis in R1881-activated AR-positive human 22Rv1 cells harboring ARE14 construct assessed as cleaved PARP level at 5 to 20 uM after 24 hrs by immunoblot analysis; type: functional, cell-based
PC-3 [18] = test: Antiproliferative activity against AR-negative human PC3 cells assessed as growth inhibition measured after 72 hrs by resazurin dye based fluorescence assay; type: functional; conditions: PC-3, 72 h
[19] = target: T1, Androgen receptor (Homo sapiens); test: Inhibition of R1881 induced-AR transcriptional activity in AR-positive human 22Rv1 cells harboring ARE14 construct assessed as luciferase activity at 10 uM after 24 hrs by luciferase assay relative to control; design: scale not given: the % may be the effect or the level left
VCaP [20] = test: Antiproliferative activity against AR-positive human VCaP cells assessed as growth inhibition measured after 72 hrs by resazurin dye based fluorescence assay; type: functional
[21] = target: T1, Androgen receptor (Homo sapiens); test: Inhibition of AR transcriptional activity in AR-positive human VCaP cells assessed as PSA protein expression at 5 to 20 uM after 24 hrs by immunoblot analysis; type: cell-based
PC-3 [22] = test: Antiproliferative activity against AR-negative human PC3 cells assessed as cell viability at 40 uM measured after 72 hrs by resazurin dye based fluorescence assay relative to control; type: functional; conditions: PC-3, 72 h, read-out: Activity
LAPC4 [23] = test: Antiproliferative activity against AR-positive human LAPC4 cells assessed as cell viability at 10 uM measured after 72 hrs by resazurin dye based fluorescence assay relative to control; type: functional; conditions: LAPC4, 72 h, read-out: Activity
LNCaP [24] = test: Antiproliferative activity against AR-positive human LNCAP cells assessed as cell viability at 10 uM measured after 72 hrs by resazurin dye based fluorescence assay relative to control; type: functional; conditions: read-out: Activity
CWR22R [25] = test: Antiproliferative activity against AR-positive human 22Rv1 cells harboring ARE14 construct assessed as cell viability at 10 uM measured after 72 hrs by resazurin dye based fluorescence assay relative to control; type: functional; conditions: 22Rv1, 72 h, read-out: Activity
PC-3 [26] = test: Antiproliferative activity against AR-negative human PC3 cells assessed as cell viability at 10 uM measured after 72 hrs by resazurin dye based fluorescence assay relative to control; type: functional; conditions: PC-3, 72 h, read-out: Activity
VCaP [27] = test: Antiproliferative activity against AR-positive human VCaP cells assessed as cell viability at 10 uM measured after 72 hrs by resazurin dye based fluorescence assay relative to control; type: functional; conditions: read-out: Activity

Question: How did the viability at 40 µM (LNCaP [1]) turn out when `COC(=O)c1cnn2c1C[C@]1(C(C)=O)[C@@H](C[C@H]3[C@@H]4CCC5=CC(=O)CC[C@]5(C)[C@H]4CC[C@@]31C)C2` was run?
Answer: 77.3%

Question: And the inhibition [2]?
Answer: Active

Question: What about the GI50 (CWR22R [3]) of the same molecule?
Answer: > 40 µM

Question: And the inhibition (CWR22R [4])?
Answer: Active

Question: And the viability at 40 µM (CWR22R [5])?
Answer: 80.4%

Question: And the viability at 40 µM (LAPC4 [6])?
Answer: 95.1%

Question: And the Activity (VCaP [7])?
Answer: Active

Question: What about the inhibition [8] of the same molecule?
Answer: inactive

Question: What about the GI50 (LAPC4 [9]) of the same molecule?
Answer: > 40 µM

Question: And the inhibition [10]?
Answer: Active

Question: And the inhibition [11]?
Answer: Dose-dependent effect

Question: What about the Activity (CWR22R [12]) of the same molecule?
Answer: inactive

Question: What about the viability at 40 µM (VCaP [13]) of the same molecule?
Answer: 85.1%

Question: And the inhibition [14]?
Answer: Active

Question: And the inhibition [15]?
Answer: Active

Question: And the GI50 (LNCaP [16])?
Answer: > 40 µM

Question: And the Activity (CWR22R [17])?
Answer: Active

Question: And the GI50 (PC-3 [18])?
Answer: > 40 µM

Question: And the Activity [19]?
Answer: 40%

Question: And the GI50 (VCaP [20])?
Answer: > 40 µM

Question: What about the inhibition [21] of the same molecule?
Answer: inactive

Question: And the viability at 40 µM (PC-3 [22])?
Answer: 98.3%

Question: For `C[C@]12CC[C@H](O)CC1=CC[C@@H]1[C@@H]2CC[C@]2(C)C(n3cnc4ccccc43)=CC[C@@H]12` [GALETERONE], which viability at 10 µM (LAPC4 [23]) is on record?
Answer: 92.8%

Question: And the Activity (VCaP [7])?
Answer: Active

Question: And the viability at 10 µM (LNCaP [24])?
Answer: 91.6%

Question: And the viability at 10 µM (CWR22R [25])?
Answer: > 100%

Question: And the viability at 10 µM (PC-3 [26])?
Answer: > 100%

Question: And the Activity (CWR22R [17])?
Answer: Active

Question: What about the viability at 10 µM (VCaP [27]) of the same molecule?
Answer: 72.9%
